Assay results reported in patent US4820712A, “Sparsomycin (SC-RS) compounds having antitumor activity, a process for their preparation and pharmaceutical compositions containing sparsomycin (SC-RS) compounds” (priority 1986, dated 1989).

Columns and labels:
P388 leukemia = assay: in vivo antitumor assay, P388 leukemia; set-up: species or system CDF1 mice
Experimental: The antitumor activity of the present compounds has also been investigated by in vivo assays. In the assays, mice were treated for nine days in succession, starting at 24 hours after the time of tumor implant.
The results are shown in tables 4, 5 and 6 and represent the number of tumor-bearing mice surviving after administration of optimal doses of the test compound, expressed as a treatment/control (T/C×100%) ratio. In the tables, information is provided with respect to the sex, dose, weight loss of treated animals compared to control animals, and the number of survivors in groups of 6 mice.

[1] = test system: ribosomes from E. coli MRE600 (peptidyl transferase activity); assay: puromycin reaction, E. coli ribosomes; format: biochemical; conditions: 50% inhibition relative to control; read-out: ED50 Puromycin reaction E. coli
Experimental: The peptidyl transferase activity was measured by the polyphenylalanine synthesis assay (Nirenberg and Matthei, Proc. Natl. Acad. Sci. USA 47 (1961) 1588), the fragment reaction (Monro, Methods Enzymol. 20 (1971) 472) and the puromycin reaction. In all the in vitro tests, i.e. polyPhe synthesis, fragment reaction and puromycin reaction, ribosomes from E. coli MRE600 and S. cerevisiae Y166 were used. The reaction mixture for polyphenylalanine synthesis was slightly different for E. coli and S. cerevisiae.
The puromycin reaction was carried out in 25 μl of 30 mM KCl, 50 mM NH4 Cl, 30 mM Tris-HCl pH 7.8, 20 mM MgCl2, 10 pmol of ribosomes, 100 μg/ml of poly(U) and 15 pmol of N-acetyl-[^3 H]Phe-tRNA. The reaction mixture was incubated for 30 min at 37° C. and then 1 μl of 20 mM puromycin was added and incubation was followed for 5 more min. To the samples 250 μl of 0.1M sodium carbonate and 0.7 ml of ethyl acetate were added, shaken for 1 min, centrifuged to separate the phases and 0.5 ml of the upper organic phase taken for estimating the radioactivity.
The concentration of sparsomycin or an analog giving 50% inhibition of the protein synthesis relative to the control is given in ED50.

whole reticulocytes = conditions: attributed to being unable to penetrate these cells; cited from earlier work
[2] = clinical tests (Cancer. Chemother. Rep. (1969), 43, 29); cited from earlier work
[3] = female mice, ip daily x9, dose mg/kg: 2a 3.4

Row | SMILES | T/C (survival, treatment/control x 100%) (P388 leukemia; female mice, ip daily x9, optimal dose mg/kg: 2a 3.4) | cures (survivors in groups of 6 mice) (P388 leukemia; [3]) | weight loss (T - C) (P388 leukemia; [3]) | IC50 [1] | T/C (survival, treatment/control x 100%) (P388 leukemia; male mice, ip daily x9, optimal dose mg/kg: sparsomycin 0.125, n-octyl 22.5, benzyl 2.0, 2e 20.0) | cures (survivors in groups of 6 mice) (P388 leukemia; male mice, ip daily x9, dose mg/kg: sparsomycin 0.125, n-octyl 22.5, benzyl 2.0, 2e 20.0) | weight loss (T - C) (P388 leukemia; mouse, in vivo, ip) | activity against whole reticulocytes (whole reticulocytes) | toxicity revealed in clinical tests [2]
1 | CSC[S@+]([O-])C[C@H](C)NC(=O)/C=C/c1c(C)[nH]c(=O)[nH]c1=O [2a, (Sc Rs)-1-(methylthiomethyl)sulfinyl-2-[β-(6-methyl-5-uracilyl)acrylamido]-propane] | 170% | 0/6 | -2.3 g | 0.9 µM | – | – | – | – | –
2 | CSC[S@+]([O-])C[C@H](CO)NC(=O)/C=C/c1c(C)[nH]c(=O)[nH]c1=O [Sparsomycin] | – | – | – | 0.1 µM | 88% | 0/6 | -3.0 g | not active | eye toxicity
